In brackets after ≈: the same amount, converted by molar mass.

What is called inhibition is the relative decrease from the control value, in per cent. Usually IC50 stands for the concentration that inhibits the measured activity by half.

A short description of assay [1]: Inhibition of quorum sensing system in Chromobacterium violaceum CV026 assessed as reduction in violacein production at 1 mg/ml measured after 24 hrs relative to control.
Assay [2] can be described thus: Inhibition of quorum sensing system in Chromobacterium violaceum CV026 assessed as reduction in violacein production measured after 24 hrs.

`CCCC/C=C\NN(C(C)=O)C(=O)C(C)CC` (stereo not drawn): the inhibition in assay [1] was determined as 40%. In the case of `CCCC/C=C\NN(C(C)=O)C(=O)C(C)C`, in assay [1], the inhibition was 40%. In the case of `CCCC/C=C\[N+]([O-])=N\[C@H](C)[C@H](O)CO`, the concentration for half-maximal inhibition (IC50) in assay [2] is 0.75 mg/mL (≈ 3.47 mM).
